Earlier results as cited in patent US20230079480A1, “STABLE NON-AQUEOUS COMPOSITIONS OF FUNCTIONAL INGREDIENTS AND METHODS OF MAKING THE SAME” (Nulixir Inc., priority 2021, published 2023).

Test system: not given
Settings: not given

Compound | solubility in ethanol as a function of water content
COc1ccc2cc3[n+](cc2c1OC)CCc1cc2c(cc1-3)OCO2 [berberine] | decreases rapidly with water content

Test system: many strains of fungi
Settings: not given

Compound | inhibitory activity against fungi
O=CC=Cc1ccccc1 [Cinnamaldehyde] | strong inhibitory activity against many strains of fungi

Test system: not given
Settings: pH 7

Compound | log P
CC(C)=CCC[C@](C)(O[C@@H]1O[C@H](CO[C@@H]2O[C@H](CO)[C@@H](O)[C@H](O)[C@H]2O)[C@@H](O)[C@H](O)[C@H]1O)[C@H]1CC[C@]2(C)[C@@H]1[C@H](O)C[C@@H]1[C@@]3(C)CC[C@H](O[C@@H]4O[C@H](CO)[C@@H](O)[C@H](O)[C@H]4O[C@@H]4O[C@H](CO)[C@@H](O)[C@H](O)[C@H]4O)C(C)(C)[C@@H]3CC[C@]12C [ginsenoside rb1] | ~−1
COc1ccc(C23C=CC(O)CC2N(C)CC3)cc1OC (stereo not drawn) [mesembrenol] | ~2.4
CC(C)=CCC[C@](C)(O[C@@H]1O[C@H](CO)[C@@H](O)[C@H](O)[C@H]1O)[C@H]1CC[C@]2(C)[C@@H]1[C@H](O)C[C@@H]1[C@@]3(C)CC[C@H](O)C(C)(C)[C@@H]3[C@@H](O[C@@H]3O[C@H](CO)[C@@H](O)[C@H](O)[C@H]3O)C[C@]12C [ginsenoside rg1] | ~0.8
COc1ccc([C@@]23C=CC(=O)C[C@@H]2N(C)CC3)cc1OC [mesembrenone] | ~1.3
CC(C)=C[C@H]1C[C@](C)(O)[C@H]2[C@H]3CC[C@@H]4[C@@]5(C)CC[C@H](O[C@@H]6O[C@H](CO)[C@@H](O)[C@H](O[C@@H]7O[C@H](CO)[C@@H](O)[C@H](O)[C@H]7O)[C@H]6O[C@@H]6O[C@@H](CO)[C@H](O)[C@H]6O)C(C)(C)[C@@H]5CC[C@@]4(C)[C@@]34CO[C@@]2(C4)O1 [bacoside A3] | ~2.1
CC(C)=C[C@H]1C[C@](C)(O)[C@@H]2[C@H]3CC[C@@H]4[C@@]5(C)CC[C@H](O[C@@H]6OC[C@H](O)[C@H](O[C@@H]7O[C@H](CO)[C@@H](O)[C@H](O)[C@H]7O)[C@H]6O[C@@H]6O[C@@H](CO)[C@H](O)[C@H]6O)C(C)(C)[C@@H]5CC[C@@]4(C)[C@@]34CO[C@@]2(C4)O1 [bacopaside X] | ~2.2
CC(C)=C[C@@H]1CO[C@]23C[C@]4(CO2)[C@H](CC[C@@H]2[C@@]5(C)CC[C@H](O[C@@H]6OC[C@H](O)[C@H](O[C@@H]7O[C@H](CO)[C@@H](O)[C@H](O)[C@H]7O)[C@H]6O[C@@H]6O[C@@H](CO)[C@H](O)[C@H]6O)C(C)(C)[C@@H]5CC[C@]24C)[C@H]3[C@@]1(C)O [bacopasaponin C] | ~2

Same assay, conditions: water and n-octanol reference phases; pH=7 unless stated otherwise

Compound | log P
COc1cc2c(c(OC)c1OC)-c1c(cc3c(c1OC)OCO3)CC(C)C(C)C2 (single isomer, unassigned; (-)) [(−)-schisandrin B] | ~4
COc1ccc(CCc2cc(OC)cc(=O)o2)cc1 [7,8-dihydroyangonin] | ~2.9
COc1cc(/C=C\c2ccc(OC)c(O)c2)oc(=O)c1 [11-hydroxyyangonin] | ~2.2
COc1ccc([C@@]23CCC(=O)C[C@@H]2N(C)CC3)cc1OC [mesembrine] | ~1.5
COc1cc2c(c(OC)c1OC)-c1c(cc(OC)c(OC)c1OC)C[C@](C)(O)[C@@H](C)C2 [schisandrol A] | ~3.4
CC(=O)OC1C=CC(=O)N(C(=O)CCc2ccccc2)C1 (stereo not drawn) [pipermethystine] | ~1.8
bacopaside B | ~2.8
schisandroside C | ~1.6
COC1=CC(=O)OC(/C=C/c2ccc(OC)cc2)C1 (stereo not drawn) [5,6-dihydroyangonin] | ~2.5
COc1c2c(cc3c1-c1c(cc4c(c1OC)OCO4)C[C@H](C)[C@H](C)C3)OCO2 [(−)-schisandrin C] | ~3.5
COC1=CC(=O)O[C@@H](CCc2ccc3c(c2)OCO3)C1 [7,8-dihydromethysticin] | ~2.2
COc1cc(/C=C/c2ccccc2)oc(=O)c1 [5,6-dehydrokawain] | ~2.9
hericerin | ~6.4
CC1=C(CO)C(=O)O[C@@H]([C@@H](C)[C@H]2CC[C@H]3[C@@H]4C[C@H](Cl)[C@]5(O)[C@@H](O)C=CC(=O)[C@]5(C)[C@H]4CC[C@]23C)C1 [6a-chloro-5b-hydroxywithaferin A] | ~3.2
COc1cc2c(c(OC)c1OC)-c1c(cc(OC)c(OC)c1OC)C[C@H](C)[C@H](C)C2 [(−)-schisandrin A] | ~3.6
N#C[C@@]1(O[C@@H]2O[C@H](CO)[C@@H](O)[C@H](O)[C@H]2O)C=C[C@@H](O)C1 [tetraphyllin B] | ~−2.5
tortuosomine | ~3
COc1cc2c(c(OC)c1OC)-c1c(cc(OC)c(OC)c1OC)C[C@](C)(O)[C@@H](C)C2 [(+)-schisandrin] | ~5
Cn1c(=O)c2c(n(C)c1=O)n(C)c(=O)n2C [theacrine] | ~−1.06
COc1cc([C@H]2Oc3cc(O)c4c(=O)c(O)c(-c5ccc(O)cc5)oc4c3O[C@@H]2CO)ccc1O [rhodiolin] | ~2
COc1nc2c(c(=O)n1C)n(C)c(=O)n2C [methylliberine] | ~−0.083
(R)-kawain | ~2.7
herinacine A | ~2.5

Test system: not given
Settings: in vivo

Compound | bioavailability
COc1ccc2cc3[n+](cc2c1OC)CCc1cc2c(cc1-3)OCO2 [berberine] | below 1%
